Data: patent US8158811B2, “Unsaturated fatty hydroxy acid derivatives and the dermocosmetologic use thereof” (Pierre Fabre Dermo-Cosmetique, priority 2005, dated 2012)

Tested on: murine melanome cell line B16-F10
Assay: melanin synthesis, colorimetric assay, basal and after α-MSH
Type: cell-based
Conditions: basal situation, 30 μg/ml
Description: The modulating effect of unsaturated fatty hydroxy acid derivatives on melanogenesis was analysed. To do this, measurement of melanin synthesis by colorimetric assay was performed on a murine melanome cell line: line B16-F10.
The effect of products was investigated in a basal situation and after stimulation by α-MSH in order to determine depigmenting capacity.
Levels of extracellular and intracellular melanin were measured by spectrophotometry at a wavelength of 405 nm according to the protocol described by Anob et al., 1999. The amount of pigment was determined using a standard melanin range and analysis on Microwin software (Berthold Biotechnologies). A total protein assay was carried out for intracellular melanin samples by means of the BCA-Copper method at 540 nm. The standard range was made up using standard protein BSA (Bovine Serum Albumin).

O=C(O)/C=C/CCCCCCCCCCCO [n=10, R=H, Rn=H, R1=H, 14-hydroxy-tetradec-2t-enoic acid]
inhibition of melanin synthesis: 15%
